In patent US9932350B2, “Inhibitors of IRAK4 activity” (MERCK SHARP & DOHME CORP., priority 2014, dated 2018) one finds IC50 data, which are given here for 37 compounds.

Structures are written as SMILES.

For orientation: IC50 means the concentration at which inhibition is half-maximal. Read a low IC50 as higher potency.

Sequence of GST tagged IRAK4 (Q9NWZ3 whole entry): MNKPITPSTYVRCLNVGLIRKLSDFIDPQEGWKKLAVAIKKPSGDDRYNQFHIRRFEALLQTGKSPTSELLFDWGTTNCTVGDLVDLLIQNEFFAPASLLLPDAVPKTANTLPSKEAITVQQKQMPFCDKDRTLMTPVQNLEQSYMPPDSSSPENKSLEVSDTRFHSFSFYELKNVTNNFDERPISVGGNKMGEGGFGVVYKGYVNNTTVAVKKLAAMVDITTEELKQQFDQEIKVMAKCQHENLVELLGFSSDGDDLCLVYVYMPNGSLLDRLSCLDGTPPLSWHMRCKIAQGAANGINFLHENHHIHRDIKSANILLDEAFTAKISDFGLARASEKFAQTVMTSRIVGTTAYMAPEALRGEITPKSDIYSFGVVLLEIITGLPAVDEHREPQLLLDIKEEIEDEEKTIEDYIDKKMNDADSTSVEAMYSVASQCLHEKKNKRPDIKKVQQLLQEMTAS

This experiment addresses GST tagged IRAK4 (Homo sapiens (Human), UniProt Q9NWZ3). Put plainly: IRAK4 Kinase Assay (IMAP fluorescence polarization). Type of experiment: biochemical. The following applies: 0.5 nM GST tagged IRAK4, 100 μM ATP, 30 minutes at 25° C. On the procedure:
The kinase activity of IRAK4 is determined by its ability to catalyze the phosphorylation of a fluorescent polypeptide substrate. The extent of phosphorylation is measured using the IMAP technology (Molecular Devices) where the phosphorylated fluorescent substrate binds to the large M(III)-based nanoparticles which reduces the rotational speed of the substrate and thus increases its fluorescent polarization (FP).
20 μL reaction mixture contains 10 mM TriHCl, pH 7.2, 0.5 nM GST tagged IRAK4 (SignalChem), 100 nM fluorescent peptide substrate (RP7030, Molecular Devices), 100 μM ATP, 1 mM DDT, 1 mM MgCl2, and 0.01% Tween 20. The reaction is initiated by the addition of ATP. After incubation for 30 minutes at 25° C., 60 μL of Progressive IMAP Reagent (Molecular Devices) is added to stop the reaction. Change in RP7030's FP is determined by a FP reader (Analyst HT, LJL BioSystems).
(In general: Fluorescence polarisation rises when a labelled molecule tumbles more slowly, as on binding a larger partner.)
The compound `N#Cc1ccc2ncnc(N[C@H]3CC[C@H](N4CCOC(C(F)(F)F)C4)CC3)c2c1` (single isomer, unassigned) [Example 3-48, 4-({trans-4-[(2R or 2S)-2-(trifluoromethyl)morpholin-4-yl]cyclohexyl}amino) quinazoline-6-carbonitrile] gave an IC50 of 256 nM. In other words, the sub-micromolar range.
In the case of `N#Cc1ccc2ncnc(N[C@H]3CC[C@H](N4CCOC(C(F)(F)F)C4)CC3)c2c1` (single isomer, unassigned) [Example 3-49, 4-({trans-4-[(2R or 2S)-2-(trifluoromethyl)morpholin-4-yl]cyclohexyl}amino) quinazoline-6-carbonitrile] it was 131 nM; in that of `CC1CC(N2CCOCC2)CCC1Nc1ncnc2ccc(C#N)cc12` (single isomer, unassigned) [Example 8-1, 4-{[(1R,2R,4R or 1S,2S,4S)-2-methyl-4-(morpholin-4-yl)cyclohexyl]amino}quinazoline-6-carbonitrile], 14 nM.
Consider `CC1CC(N2CCC(F)CC2)CCC1Nc1ncnc2ccc(C#N)cc12` (single isomer, unassigned) [Example 8-2, 4-{[(1S,2S,4S or 1R,2R,4R)-4-(4-fluoropiperidin-1-yl)-2-methylcyclohexyl]amino} quinazoline-6-carbonitrile], for which the IC50 was determined as 10 nM.
In turn, `CC1CC(N2CCOCC2)CCC1Nc1ncnc2ccc(C#N)cc12` (single isomer, unassigned) [Example 8-3, 4-{[(1S,2R,4S or 1R,2S,4R)-2-methyl-4-(morpholin-4-yl)cyclohexyl]amino} quinazoline-6-carbonitrile] came in with an IC50 of 26 nM.
The same measure for `N#Cc1ccc2ncnc(N[C@H]3CC[C@H](N)CC3)c2c1` [Example 1-1, 4-[(Trans-4-aminocyclohexyl)amino]quinazoline-6-carbonitrile]: 31 nM; for `N[C@H]1CC[C@H](Nc2ncnc3ccc(Br)cc23)CC1` [Example 1-2, trans-N-(6-bromoquinazolin-4-yl)cyclohexane-1,4-diamine]: 27 nM; for `Brc1ccc2ncnc(O[C@H]3CC[C@H](N4CCOCC4)CC3)c2c1` [Example 2-1, 6-Bromo-4-{[trans-4-(morpholin-4-yl)cyclohexyl]oxy}quinazoline]: 40 nM.
`Brc1ccc2ncnc(N[C@H]3CC[C@H](N4CCOCC4)CC3)c2c1` [Example 2-2, 6-Bromo-N-[trans-4-(morpholin-4-yl)cyclohexyl]quinazolin-4-amine] gave an IC50 of 5 nM.
In the case of `COc1cc2ncnc(N[C@H]3CC[C@H](N(C)C)CC3)c2cc1OC` [Example 2-3, trans-N′-(6,7-dimethoxyquinazolin-4-yl)-N,N-dimethylcyclohexane-1,4-diamine] it was 7420 nM; in that of `CN(C)[C@H]1CC[C@H](Nc2ncnc3cc(F)c(F)cc23)CC1` [Example 2-4, trans-N′-(6,7-difluoroquinazolin-4-yl)-N,N-dimethylcyclohexane-1,4-diamine], 303 nM; in that of `CN(C)[C@H]1CC[C@H](Nc2ncnc3ccc(C#N)cc23)CC1` [Example 2-5, 4-{[trans-4-(dimethylamino)cyclohexyl]amino}quinazoline-6-carbonitrile], 7 nM.
The same measure for `CN(C)[C@H]1CC[C@H](Nc2ncnc3ccc(Br)cc23)CC1` [Example 2-6, trans-N′-(6-bromoquinazolin-4-yl)-N,N-dimethylcyclohexane-1,4-diamine]: 9 nM; for `N#Cc1ccc2ncnc(N[C@H]3CC[C@H](N4CCOCC4)CC3)c2c1` [Example 2-7, 4-{[trans-4-(morpholin-4-yl)cyclohexyl]amino} quinazoline-6-carbonitrile]: 6 nM; for `COc1ccc2ncnc(N[C@H]3CC[C@H](N4CCOCC4)CC3)c2c1` [Example 2-8, 6-methoxy-N-[trans-4-(morpholin-4-yl)cyclohexyl]quinazolin-4-amine]: 16 nM.
The same measure for `Fc1ccc2ncnc(N[C@H]3CC[C@H](N4CCOCC4)CC3)c2c1` [Example 2-9, 6-fluoro-N-[trans-4-(morpholin-4-yl)cyclohexyl]quinazolin-4-amine]: 113 nM; for `CC(C)Oc1ccc2ncnc(N[C@H]3CC[C@H](N4CCOCC4)CC3)c2c1` [Example 2-10, N-[trans-4-(morpholin-4-yl)cyclohexyl]-6-(propan-2-yloxy)quinazolin-4-amine]: 82 nM.
`Fc1cc2ncnc(N[C@H]3CC[C@H](N4CCOCC4)CC3)c2cc1Br` [Example 2-11, 6-bromo-7-fluoro-N-[trans-4-(morpholin-4-yl)cyclohexyl]quinazolin-4-amine] displayed an IC50 of 15 nM.
The same measure for `COc1cc2c(N[C@H]3CC[C@H](N4CCOCC4)CC3)ncnc2cc1F` [Example 2-12, 7-fluoro-6-methoxy-N-[trans-4-(morpholin-4-yl)cyclohexyl]quinazolin-4-amine]: 58 nM; for `Clc1ccc2ncnc(N[C@H]3CC[C@H](N4CCOCC4)CC3)c2c1` [Example 2-13, 6-chloro-N-[trans-4-(morpholin-4-yl)cyclohexyl]quinazolin-4-amine]: 6 nM.
The same measure for `CN(C)[C@H]1CC[C@H](Nc2ncnc3ccc(OCC#N)cc23)CC1` [Example 2-15]: 12 nM; for `CN(C)[C@H]1CC[C@H](Nc2ncnc3ccc(OCCCC#N)cc23)CC1` [Example 2-16, 4-[(4-{[trans-4-(dimethylamino)cyclohexyl]amino}quinazolin-6-yl)oxy]butanenitrile]: 734 nM.
As for `CN(C)[C@H]1CC[C@H](Nc2ncnc3ccc(OCC(N)=O)cc23)CC1` [Example 2-17, 2-[(4-{[trans-4-(dimethylamino)cyclohexyl]amino}quinazolin-6-yl)oxy]acetamide], 52 nM corresponded to half-maximal inhibition (IC50).
`N#Cc1ccc2ncnc(NC3CCC(N4CCOCC4)[C@@H]4C[C@H]34)c2c1` (stereo partly drawn) [Example 2-18, 4-{[(1S,6R)-5-(morpholin-4-yl)bicyclo[4.1.0]hept-2-yl]amino}quinazoline-6-carbonitrile]: the midpoint of inhibition, the IC50, lay at 56 nM.
In the case of `N#Cc1ccc2ncnc(N[C@H]3CC[C@H](N4CCC4)CC3)c2c1` [Example 3-1, 4-{[Trans-4-(azetidin-1-yl)cyclohexyl]amino}quinazoline-6-carbonitrile] it was 34 nM.
The same measure for `N#Cc1ccc2ncnc(N[C@H]3CC[C@@H](N4CCC4)CC3)c2c1` [Example 3-6, 4-{[cis-4-(azetidin-1-yl)cyclohexyl]amino} quinazoline-6-carbonitrile]: 768 nM; for `CC1OCCN([C@H]2CC[C@H](Nc3ncnc4ccc(C#N)cc34)CC2)C1C` (stereo partly drawn) [Example 3-7, 4-{[trans-4-(2,3-dimethylmorpholin-4-yl)cyclohexyl]amino} quinazoline-6-carbonitrile]: 96 nM; for `CC1OCCN([C@H]2CC[C@@H](Nc3ncnc4ccc(C#N)cc34)CC2)C1C` (stereo partly drawn) [Example 3-8, 4-{[cis-4-(2,3-dimethylmorpholin-4-yl)cyclohexyl]amino} quinazoline-6-carbonitrile]: 2550 nM.
The compound `C[C@@H]1CN([C@H]2CC[C@H](Nc3ncnc4ccc(C#N)cc34)CC2)C[C@H](C)O1` [Example 3-9, 4-({trans-4-[(2R,6S)-2,6-dimethylmorpholin-4-yl]cyclohexyl}amino) quinazoline-6-carbonitrile] registered an IC50 of 5 nM.
`CS(=O)(=O)C1CCN([C@H]2CC[C@H](Nc3ncnc4ccc(C#N)cc34)CC2)CC1` [Example 3-10, 4-({trans-4-[4-(methylsulfonyl)piperidin-1-yl]cyclohexyl}amino) quinazoline-6-carbonitrile] came in with an IC50 of 11 nM. This IC50 lies about 2.2-fold higher than the previous one.
`CS(=O)(=O)C1CCN([C@H]2CC[C@H](Nc3ncnc4ccc(C#N)cc34)CC2)C1` (stereo partly drawn) [Example 3-13, 4-({trans-4-[3-(methylsulfonyl)pyrrolidin-1-yl]cyclohexyl}amino) quinazoline-6-carbonitrile] came in with an IC50 of 14 nM.
Consider `N#Cc1ccc2ncnc(N[C@H]3CC[C@H](N4C[C@@H]5C[C@H]4CO5)CC3)c2c1` [Example 3-18, 4-({trans-4-[(1S,4S)-2-oxa-5-azabicyclo[2.2.1]hept-5-yl]cyclohexyl}amino) quinazoline-6-carbonitrile], for which the IC50 came to 114 nM. This IC50 is about 8.1-fold higher than that of the compound before.
In the case of `N#Cc1ccc2ncnc(N[C@H]3CC[C@H](N4CCC(F)CC4)CC3)c2c1` [Example 3-19, 4-{[trans-4-(4-fluoropiperidin-1-yl)cyclohexyl]amino} quinazoline-6-carbonitrile] it was 3 nM; in that of `CS(=O)(=O)N1CCN([C@H]2CC[C@H](Nc3ncnc4ccc(C#N)cc34)CC2)CC1` [Example 3-20, 4-({trans-4-[4-(methylsulfonyl)piperazin-1-yl]cyclohexyl}amino) quinazoline-6-carbonitrile], 8 nM; in that of `N#Cc1ccc2ncnc(N[C@H]3CC[C@H](NCC(F)(F)F)CC3)c2c1` [Example 3-21, 4-({trans-4-[(2,2,2-trifluoroethyl)amino]cyclo-hexyl}amino)quinazoline-6-carbonitrile], 512 nM.
The compound `COCCN[C@H]1CC[C@H](Nc2ncnc3ccc(C#N)cc23)CC1` [Example 3-22, 4-({trans-4-[(2-methoxyethyl)amino]cyclohexyl}amino)quinazoline-6-carbonitrile] had a concentration for half-maximal inhibition (IC50) of 16 nM. This IC50 is about 32-fold lower than that of the compound before.
The same measure for `N#Cc1ccc2ncnc(N[C@H]3CC[C@H](NC4CC4)CC3)c2c1` [Example 3-23, 4-{[trans-4-(cyclopropylamino)cyclo-hexyl]amino}quinazoline-6-carbonitrile]: 26 nM.
